Where a name gives a salt, the structure may show the parent alone.
How the values were obtained:
CYP11B2 = CYP11B2 (Homo sapiens (Human), UniProt P19099); test: G-402 cellular enzyme assay, human CYP11B2 (aldosterone release); assay type: cell-based; details: G-402 cells expressing human CYP11B2, 1 μM Deoxycorticosterone
Excerpt: (§1) The expression plasmids contains the ORF for either human/cyno CYP11B1 or CYP11B2 under the control of a suitable promoter (CMV-promoter) and a suitable resistance marker (neomycin). Using standard techniques the expression plasmid is transfected into G-402 cells and these cells are then selected for expressing the given resistance markers. Individual cell-clones are then selected and assessed for displaying the desired enzymatic activity using 11-Deoxycorticosterone (Cyp 11B2) or 11-Deoxycortisol (Cyp 11B1) as a substrate.
(§2) G-402 cells expressing CYP11 constructs were established as described above and maintained in McCoy's 5a Medium Modified, ATCC Catalog No. 30-2007 containing 10% FCS and 400 μg/ml G418 (Geneticin) at 37° C. under an atmosphere of 5% CO2/95% air. […] For assaying enzymatic activity, cells were plated onto 96 well plates and incubated for 16 h. An aliquot of the supernatant is then transferred and analyzed for the concentration of the expected product (Aldosterone for CYP11B2; Cortisol for CYP11B1). The concentrations of these steroids can be determined using HTRF assays from CisBio analyzing either Aldosterone or Cortisol.
(§3) Inhibition of the release of produced steroids can be used as a measure of the respective enzyme inhibition by test compounds added during the cellular enzyme assay. The dose dependent inhibition of enzymatic activity by a compound is calculated by means of plotting added inhibitor concentrations (x-axes) vs. measured steroid/product level (y-axes). The inhibition is then calculated by fitting the following 4-parameter sigmoidal function (Morgan-Mercer-Flodin (MMF) model) to the raw data points using the least squares method:
(§4) [formula] wherein, A is the maximum y value, B is the EC50 factor determined using XLFit, C is the minimum y value and D is the slope value.
(§5) EC50 values for compounds claimed herein were tested with the G402-based assay system described. Cyp 11B2 enzyme activity was tested in presence of 1 μM Deoxycorticosterone and variable amounts of inhibitors; Cyp 11B1 enzyme activity was tested in presence of 1 μM Deoxycortisol and variable amounts of inhibitors.

human CYP11B1 = human CYP11B1 (Homo sapiens (Human), UniProt P15538); test: G-402 cellular enzyme assay, human CYP11B1 (cortisol release); assay type: cell-based; details: G-402 cells expressing human CYP11B1, 1 μM Deoxycortisol
human CYP11B1, sequence (P15538 25-503): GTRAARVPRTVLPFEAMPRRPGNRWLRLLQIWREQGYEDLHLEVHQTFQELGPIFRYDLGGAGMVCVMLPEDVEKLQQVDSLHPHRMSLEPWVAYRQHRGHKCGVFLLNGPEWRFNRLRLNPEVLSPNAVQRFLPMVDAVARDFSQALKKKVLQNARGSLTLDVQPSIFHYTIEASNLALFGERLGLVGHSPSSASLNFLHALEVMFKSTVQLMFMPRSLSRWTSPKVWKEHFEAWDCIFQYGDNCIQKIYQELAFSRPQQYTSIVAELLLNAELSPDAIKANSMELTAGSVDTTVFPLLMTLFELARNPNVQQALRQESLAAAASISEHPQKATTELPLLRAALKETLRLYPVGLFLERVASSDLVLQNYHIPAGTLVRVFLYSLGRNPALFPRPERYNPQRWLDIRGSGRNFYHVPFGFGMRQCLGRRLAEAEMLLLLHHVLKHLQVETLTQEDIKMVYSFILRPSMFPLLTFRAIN
Excerpt: as §1, §2, §3, §4, §5

CYP11B2, sequence (P19099 25-503): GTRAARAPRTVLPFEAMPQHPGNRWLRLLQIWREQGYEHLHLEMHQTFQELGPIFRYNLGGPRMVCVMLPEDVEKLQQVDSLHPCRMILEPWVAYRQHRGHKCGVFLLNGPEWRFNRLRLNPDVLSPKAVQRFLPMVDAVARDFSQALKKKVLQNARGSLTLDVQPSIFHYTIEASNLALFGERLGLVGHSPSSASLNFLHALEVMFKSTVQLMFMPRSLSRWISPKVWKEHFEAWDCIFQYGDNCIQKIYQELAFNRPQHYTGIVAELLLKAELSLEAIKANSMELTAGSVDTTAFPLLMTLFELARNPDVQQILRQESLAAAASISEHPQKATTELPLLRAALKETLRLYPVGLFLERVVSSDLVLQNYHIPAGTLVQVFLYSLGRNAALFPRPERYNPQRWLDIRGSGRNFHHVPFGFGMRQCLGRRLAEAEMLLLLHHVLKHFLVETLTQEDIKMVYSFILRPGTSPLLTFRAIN

EC50 (CYP11B2) | EC50 (human CYP11B1) | SMILES
79 nM | 4040 nM | CCC(=O)NC1CCc2c(-c3ccc(C(F)(F)F)cc3)cncc21 (racemic) [Example 49, (rac)-N-(4-(4-(Trifluoromethyl)phenyl)-6,7-dihydro-5H-cyclopenta[c]pyridin-7-yl)propionamide]
730 nM | 12700 nM | CCS(=O)(=O)NC1CCc2c(-c3ccc(C(F)(F)F)cc3)cncc21 (racemic) [Example 64, (rac)-N-(4-(4-(Trifluoromethyl)phenyl)-6,7-dihydro-5H-cyclopenta[c]pyridin-7-yl)ethanesulfonamide]
16.9 nM | 740 nM | OC1CCc2c(-c3ccc(C(F)(F)F)cc3)cncc21 (racemic) [Example 83, (rac)-4-(4-(Trifluoromethyl)phenyl)-6,7-dihydro-5H-cyclopenta[c]pyridin-7-ol]
86.3 nM | 364 nM | NC1CCc2c(-c3ccc(C(F)(F)F)cc3)cncc21 (racemic) [Example 93, (rac)-4-(4-Trifluoromethyl-phenyl)-6,7-dihydro-5H-[2]pyrindin-7-ylamine]
148 nM | 2330 nM | O=S(=O)(NC1CCc2c(-c3ccc(C(F)(F)F)cc3)cncc21)C1CC1 (racemic) [Example 94, (rac)-Cyclopropanesulfonic acid [4-(4-trifluoromethyl-phenyl)-6,7-dihydro-5H-[2]pyrindin-7-yl]-amide]
1800 nM | 1960 nM | CS(=O)(=O)NC1CCc2c(-c3ccc(C(F)(F)F)cc3)cncc21 (racemic) [Example 95, (rac)-N-[4-(4-Trifluoromethyl-phenyl)-6,7-dihydro-5H-[2]pyrindin-7-yl]-methanesulfonamide]
373 nM | 3870 nM | CCCS(=O)(=O)NC1CCc2c(-c3ccc(C(F)(F)F)cc3)cncc21 (racemic) [Example 96, (rac)-Propane-1-sulfonic acid [4-(4-trifluoromethyl-phenyl)-6,7-dihydro-5H-[2]pyrindin-7-yl]-amide]
19.6 nM | 628 nM | COC(=O)COC1CCc2c(-c3ccc(C(F)(F)F)cc3)cncc21 (racemic) [Example 98, (rac)-Methyl 2-(4-(4-(trifluoromethyl)phenyl)-6,7-dihydro-5H-cyclopenta[c]pyridin-7-yloxy)acetate]
12.9 nM | 430 nM | CNC(=O)COC1CCc2c(-c3ccc(C(F)(F)F)cc3)cncc21 (racemic) [Example 100, (rac)-N-Methyl-2-(4-(4-(trifluoromethyl)phenyl)-6,7-dihydro-5H-cyclopenta[c]pyridin-7-yloxy)acetamide]
14.6 nM | 710 nM | OC1CCCc2c(-c3ccc(C(F)(F)F)cc3)cncc21 (racemic) [Example 104, (rac)-4-(4-(Trifluoromethyl)phenyl)-5,6,7,8-tetrahydroisoquinolin-8-ol]

The next lines start with the compound.

SMILES | EC50 (CYP11B2) | EC50 (human CYP11B1)
CCC(=O)NC1CCCc2c(-c3ccc(F)c(F)c3)cncc21 (racemic) [Example 44, (rac)-N-(4-(3,4-Difluorophenyl)-5,6,7,8-tetrahydroisoquinolin-8-yl)propionamide] | 47 nM | 826 nM
CCC(=O)NC1CCCc2c(-c3ccc(Cl)c(Cl)c3)cncc21 (racemic) [Example 45, (rac)-N-(4-(3,4-Dichlorophenyl)-5,6,7,8-tetrahydroisoquinolin-8-yl)propionamide] | 3 nM | 177 nM
CCC(=O)NC1CCc2c(-c3ccc(Cl)c(F)c3)cncc21 (racemic) [Example 55, (rac)-N-(4-(4-Chloro-3-fluorophenyl)-6,7-dihydro-5H-cyclopenta[c]pyridin-7-yl)propionamide] | 12 nM | 184 nM
CCC(=O)NC1CCc2c(-c3ccc(F)c(C)c3)cncc21 (racemic) [Example 58, (rac)-N-(4-(4-Fluoro-3-methylphenyl)-6,7-dihydro-5H-cyclopenta[c]pyridin-7-yl)propionamide] | 10 nM | 156 nM
CCC(=O)NC1CCc2c(-c3ccc(C(F)(F)F)cc3F)cncc21 (racemic) [Example 61, (rac)-N-(4-(2-Fluoro-4-(trifluoromethyl)phenyl)-6,7-dihydro-5H-cyclopenta[c]pyridin-7-yl)propionamide] | 44 nM | 3610 nM
CCS(=O)(=O)NC1CCc2c(-c3ccc(C(F)(F)F)c(F)c3)cncc21 (racemic) [Example 71, (rac)-N-(4-(3-Fluoro-4-(trifluoromethyl)phenyl)-6,7-dihydro-5H-cyclopenta[c]pyridin-7-yl)ethanesulfonamide] | 242 nM | 3020 nM
OC1CCc2c(-c3ccc(C(F)(F)F)cc3F)cncc21 (racemic) [Example 80, (rac)-4-(2-Fluoro-4-(trifluoromethyl)phenyl)-6,7-dihydro-5H-cyclopenta[c]pyridin-7-ol] | 4.5 nM | 427 nM
N#Cc1ccc(-c2cncc3c2CCC3O)cc1 (racemic) [Example 81, (rac)-4-(7-Hydroxy-6,7-dihydro-5H-cyclopenta[c]pyridin-4-yl)benzonitrile] | 1.3 nM | 12 nM
OC1CCc2c(-c3ccc(C(F)(F)F)c(F)c3)cncc21 (racemic) [Example 82, (rac)-4-(3-Fluoro-4-(trifluoromethyl)phenyl)-6,7-dihydro-5H-cyclopenta[c]pyridin-7-ol] | 5.2 nM | 71 nM
CC1(O)CCc2c(-c3ccc(C(F)(F)F)cc3)cncc21 (racemic) [Example 84, (rac)-7-Methyl-4-(4-(trifluoromethyl)phenyl)-6,7-dihydro-5H-cyclopenta[c]pyridin-7-ol] | 4.8 nM | 5 nM
NC1CCc2c(-c3ccc(C(F)(F)F)c(F)c3)cncc21 (racemic) [Example 89, (rac)-4-(3-Fluoro-4-trifluoromethyl-phenyl)-6,7-dihydro-5H-[2]pyrindin-7-ylamine] | 54.7 nM | 1380 nM
CCC(=O)NC1CCc2c(-c3ccc(C(F)(F)F)c(F)c3)cncc21 (racemic) [Example 90, (rac)-N-(4-(3-Fluoro-4-(trifluoromethyl)phenyl)-6,7-dihydro-5H-cyclopenta[c]pyridin-7-yl)propionamide] | 26.7 nM | 1900 nM
O=S(=O)(NC1CCc2c(-c3ccc(C(F)(F)F)c(F)c3)cncc21)C1CC1 (racemic) [Example 91, (rac)-Cyclopropanesulfonic acid [4-(3-fluoro-4-trifluoromethyl-phenyl)-6,7-dihydro-5H-[2]pyrindin-7-yl]-amide] | 301 nM | 389 nM
CCC(=O)OC1CCc2c(-c3ccc(C(F)(F)F)c(F)c3)cncc21 (racemic) [Example 92, (rac)-Propionic acid 4-(3-fluoro-4-trifluoromethyl-phenyl)-6,7-dihydro-5H-[2]pyrindin-7-yl ester] | 16.4 nM | 441 nM
CC(C)(C)OC(=O)COC1CCc2c(-c3ccc(C(F)(F)F)cc3)cncc21 (racemic) [Example 97, (rac)-tert-Butyl 2-(4-(4-(trifluoromethyl)phenyl)-6,7-dihydro-5H-cyclopenta[c]pyridin-7-yloxy)acetate] | 1.4 nM | 72.4 nM
O=C(O)COC1CCc2c(-c3ccc(C(F)(F)F)cc3)cncc21 (racemic) [Example 99, (rac)-2-(4-(4-(Trifluoromethyl)phenyl)-6,7-dihydro-5H-cyclopenta[c]pyridin-7-yloxy)acetic acid hydrochloride] | 65.9 nM | 1190 nM
CN(C)C(=O)COC1CCc2c(-c3ccc(C(F)(F)F)cc3)cncc21 (racemic) [Example 101, (rac)-N,N-Dimethyl-2-(4-(4-(trifluoromethyl)phenyl)-6,7-dihydro-5H-cyclopenta[c]pyridin-7-yloxy)acetamide] | 26.9 nM | 1270 nM
NC(=O)COC1CCc2c(-c3ccc(C(F)(F)F)cc3)cncc21 (racemic) [Example 102, (rac)-2-(4-(4-(Trifluoromethyl)phenyl)-6,7-dihydro-5H-cyclopenta[c]pyridin-7-yloxy)acetamide] | 1.1 nM | 40.8 nM
CC1(COC2CCc3c(-c4ccc(C(F)(F)F)cc4)cncc32)COC1 (racemic) [Example 103, (rac)-7-((3-Methyloxetan-3-yl)methoxy)-4-(4-(trifluoromethyl)phenyl)-6,7-dihydro-5H-cyclopenta[c]pyridine] | 0.2 nM | 2.3 nM
CCC(=O)N[C@@H]1c2cncc(-c3ccc(C(F)(F)F)cc3)c2CC[C@H]1C (single isomer, unassigned) [Example 67, N-[(7R,8S or 7S,8R)-7-Methyl-4-(4-trifluoromethyl-phenyl)-5,6,7,8-tetrahydro-isoquinolin-8-yl]-propionamide] | 764 nM | 8470 nM
